Experimental data reported in the NIST ThermoML archive (doi:10.1021/je900210h).
“And” between values parts separate entries of the source, which are not always exact repeats. Identical values can stand only once.

Conditions: Fluid (supercritical or subcritical phases), Coaxial cylinder method

FCC(F)(F)F [1,1,1,2-tetrafluoroethane]
Conditions	thermal conductivity
299.29 K, 170 kPa	0.01287 W/m/K
299.63 K, 170 kPa	0.01279 W/m/K
318.97 K, 740 kPa	0.01489 W/m/K and 0.01486 W/m/K
319.14 K, 160 kPa	0.0146 W/m/K
345.58 K, 180 kPa	0.01711 W/m/K
346.36 K, 180 kPa	0.01739 W/m/K
348.54 K, 180 kPa	0.01732 W/m/K
351.84 K, 640 kPa	0.01763 W/m/K
363.88 K, 180 kPa	0.01891 W/m/K
365 K, 180 kPa	0.01891 W/m/K
365.41 K, 180 kPa	0.01893 W/m/K
365.69 K, 180 kPa	0.01893 W/m/K
366.52 K, 180 kPa	0.01892 W/m/K
366.8 K, 180 kPa	0.01893 W/m/K
372.42 K, 680 kPa	0.01975 W/m/K
372.43 K, 170 kPa	0.01968 W/m/K
372.43 K, 680 kPa	0.01965 W/m/K
374.18 K, 4090 kPa	0.0729 W/m/K
374.19 K, 4100 kPa	0.0708 W/m/K
374.21 K, 4120 kPa	0.068 W/m/K
374.22 K, 4142 kPa	0.0659 W/m/K
374.22 K, 4149 kPa	0.0654 W/m/K
374.23 K, 4187 kPa	0.0642 W/m/K
374.28 K, 4085 kPa	0.141 W/m/K
374.31 K, 4090 kPa	0.1233 W/m/K
374.32 K, 4093 kPa	0.1139 W/m/K
374.34 K, 4097 kPa	0.1057 W/m/K
374.36 K, 4100 kPa	0.0993 W/m/K
374.37 K, 4073 kPa	0.1974 W/m/K
374.37 K, 4074 kPa	0.1974 W/m/K
374.37 K, 4245 kPa	0.0643 W/m/K
374.37 K, 4270 kPa	0.0643 W/m/K
374.37 K, 4358 kPa	0.0641 W/m/K
374.38 K, 4078 kPa	0.1828 W/m/K
374.38 K, 4083 kPa	0.1742 W/m/K
374.38 K, 4105 kPa	0.0914 W/m/K
374.39 K, 4070 kPa	0.1644 W/m/K
374.4 K, 4110 kPa	0.0851 W/m/K
374.47 K, 4071 kPa	0.1096 W/m/K
374.5 K, 4533 kPa	0.0637 W/m/K
374.51 K, 4621 kPa	0.0635 W/m/K
374.52 K, 4710 kPa	0.0617 W/m/K
374.52 K, 4759 kPa	0.061 W/m/K
374.54 K, 4072 kPa	0.0831 W/m/K
374.57 K, 4073 kPa	0.0764 W/m/K
374.61 K, 4068 kPa	0.0674 W/m/K
374.66 K, 4063 kPa	0.0593 W/m/K
374.72 K, 4049 kPa	0.0529 W/m/K
374.76 K, 3717 kPa	0.0352 W/m/K
374.89 K, 4035 kPa	0.0494 W/m/K
374.92 K, 3675 kPa	0.0342 W/m/K
374.96 K, 4117 kPa	0.1232 W/m/K
374.96 K, 4119 kPa	0.1244 W/m/K
374.96 K, 4126 kPa	0.1244 W/m/K
374.97 K, 4112 kPa	0.1176 W/m/K
374.97 K, 4132 kPa	0.1198 W/m/K
374.99 K, 4107 kPa	0.1106 W/m/K
374.99 K, 10033 kPa	0.064 W/m/K
375 K, 4149 kPa	0.101 W/m/K
375.01 K, 8053 kPa	0.0615 W/m/K
375.03 K, 4099 kPa	0.091 W/m/K
375.03 K, 4155 kPa	0.091 W/m/K
375.03 K, 6045 kPa	0.0576 W/m/K
375.04 K, 888 kPa	0.0235 W/m/K
375.04 K, 4160 kPa	0.0861 W/m/K
375.06 K, 4168 kPa	0.0796 W/m/K
375.07 K, 4097 kPa	0.0773 W/m/K
375.1 K, 3544 kPa	0.0321 W/m/K
375.1 K, 3981 kPa	0.0428 W/m/K
375.1 K, 4185 kPa	0.0704 W/m/K
375.11 K, 4099 kPa	0.0671 W/m/K
375.13 K, 4199 kPa	0.0643 W/m/K
375.14 K, 3928 kPa	0.0409 W/m/K
375.14 K, 4132 kPa	0.1072 W/m/K
375.14 K, 4134 kPa	0.108 W/m/K
375.14 K, 4136 kPa	0.108 W/m/K
375.14 K, 4138 kPa	0.108 W/m/K
375.14 K, 4140 kPa	0.108 W/m/K
375.14 K, 4142 kPa	0.1072 W/m/K
375.14 K, 4144 kPa	0.1063 W/m/K
375.14 K, 4216 kPa	0.0612 W/m/K
375.15 K, 4130 kPa	0.1055 W/m/K
375.15 K, 4146 kPa	0.1047 W/m/K
375.15 K, 4148 kPa	0.1024 W/m/K
375.16 K, 4150 kPa	0.1009 W/m/K
375.16 K, 4153 kPa	0.0988 W/m/K
375.16 K, 4244 kPa	0.0586 W/m/K
375.17 K, 4157 kPa	0.0941 W/m/K
375.17 K, 4289 kPa	0.0565 W/m/K
375.18 K, 4030 kPa	0.0479 W/m/K
375.18 K, 4160 kPa	0.0916 W/m/K
